In assay [1] the target is T1, HSP90α (Homo sapiens, UniProt P07900).
T1 construct: gene HSP90AA1; N-terminal domain
Briefly: biochemical. Further details: fluorescence polarisation competition with FITC-labelled geldanamycin on HSP90α N-terminal domain (BPS kit 50293). The note with it: read-out: FP IC50. On the procedure:
The binding affinity for HSP90α was evaluated using a commercially available Hsp90α N-terminal domain assay kit (Catalogue: #50293, BPS Bioscience, CA, USA). According to the manufacturer’s instructions, 5x HSP90 assay buffer (5 μL), 40 mM dithiothreitol (5 μL), 2 mg/mL BSA (5 μL), and H2O (40 μL) were sequentially added to each well. After the addition of diluted FITC-labelled geldanamycin solution (100 nM, 5 μL), compounds at different concentrations (10 μM, 1.0 μM, 0.1 μM, 0.01 μM) were added. The reaction was initiated by the addition of 20 μL of Hsp90α (17 ng/μL). After 2 h of incubation with slow shaking at room temperature, the fluorescent polarisation was measured using Synergy H1 (BioTek Instruments, Inc.). The excitation and emission wavelengths were 485 nm and 530 nm, respectively. IC50 values were calculated based on the signal changes in the FP competition assay. The experiments were performed in triplicate. To further verify the binding of the synthesised compounds to the HSP90 N-terminus, the binding affinity of five typical compounds (16j, 16l, 16m, 22k, and 22l) was evaluated using an FP assay. The addition of compounds with HSP90 inhibitory capacity into the assay would compete with the fluorescence probe for binding into HSP90, resulting in a decrease in FP in comparison with the probe alone.

For assay [2], the target named is T1, HSP90α. In words: fluorescence polarisation competition with FITC-geldanamycin (BPS kit #[…]). Type of assay: binding.

In the case of `Cc1ccc(-c2cn(Cc3ccccc3)c(-c3ccc(Cl)cc3)n2)cc1` [16j, 1-Benzyl-2–(4-chlorophenyl)-4-(p-tolyl)-1H-imidazole], the IC50 on HSP90α [1] worked out at 610 ± 30 nM.

As for `Clc1ccc(-c2cn(Cc3ccccc3)c(-c3ccc(Cl)cc3)n2)cc1` [16l, 1-Benzyl-2,4-bis(4-chlorophenyl)-1H-imidazole], the half-maximal inhibitory concentration (IC50) on HSP90α [1] came to 570 ± 60 nM.

For the compound `Clc1ccc(-c2nc(-c3cccc(Cl)c3)cn2Cc2ccccc2)cc1` [16m, 1-Benzyl-4–(3-chlorophenyl)-2–(4-chlorophenyl)-1H-imidazole], on HSP90α [1], the half-inhibitory concentration (IC50) came to 620 ± 110 nM.

For `Oc1ccc(-c2cnc(OCc3ccccc3)nc2OCc2ccccc2)cc1` [22k, 4–(2,4-Bis(benzyloxy)pyrimidin-5-yl)phenol], the IC50 on HSP90α [2] stood at 210 ± 30 nM.

In the case of `Oc1cccc(-c2cnc(OCc3ccccc3)nc2OCc2ccccc2)c1` [22l, 3–(2,4-Bis(benzyloxy)pyrimidin-5-yl)phenol], the IC50 at HSP90α [1] is 580 ± 110 nM.

(Values after article PMC9518286, “Design, synthesis, biological evaluation and molecular docking study of 2,4-diarylimidazoles and 2,4-bis(benzyloxy)-5-arylpyrimidines as novel HSP90 N-terminal inhibitors” (Journal of Enzyme Inhibition and Medicinal Chemistry, 2022).)
